Reference: patent publication US8927538B2, “Carbazole linked pyrrolo[2,1-c][1,4]benzodiazefine hybrids as potential anticancer agents and process for the preparation thereof” (Council of Scientific & Industrial Research, priority 2010, dated 2015)

Columns and labels:
A-2780 = experiment: ACTREC in vitro cytotoxicity, A-2780; format: cell-based; settings: Ovary A-2780 (Table 4)
Procedure: (§1) In vitro biological activity studies were carried out at the Advance Center for Treatment Research & Education in Cancer.

Zr-75-1 = experiment: ACTREC in vitro cytotoxicity, Zr-75-1; format: cell-based
Procedure: as §1

KB = experiment: ACTREC in vitro cytotoxicity, KB; format: cell-based
Procedure: as §1

HOP-62 = experiment: ACTREC in vitro cytotoxicity, HOP-62; format: cell-based
Procedure: as §1

Si-Ha = experiment: ACTREC in vitro cytotoxicity, Si-Ha; format: cell-based
Procedure: as §1

[1] = tested on: duplex-form calf thymus DNA (CT-DNA); experiment: Thermal denaturation studies (DNA binding); settings: [PBD]:[DNA] molar ratio 1:5, CT-DNA 100 μM, ligand 20 μM; for ΔTm after incubation at 37 °C for 0 h: pH 7.00, 0 h; for ΔTm after incubation at 37 °C for 18 h: pH 7.00, 18 h
Procedure: Compounds have been subjected to thermal denaturation studies with duplex-form calf thymus DNA (CT-DNA) using a modification of a reported procedure. Working solutions in aqueous buffer ([…] NaH2PO4/Na2HPO4, 1 mM Na2EDTA, pH 7.00±0.01) containing CT-DNA (100 μM in phosphate) and the PBD (20 μM) have been prepared by addition of concentrated PBD solutions in DMSO to obtain a fixed [PBD]/[DNA] molar ratio of 1:5. The DNA-PBD solutions have been incubated at 37° C. for 0 and 18 hrs prior to analysis. Samples have been monitored at 260 nm using a Beckman DU-800 spectrophotometer fitted with high performance temperature controller, and heated at 1° C. min^−1 in the 40-110° C. range. DNA helix→coil transition temperatures (Tm) have been obtained from the maxima in the d(A260)/dT derivative plots. Drug-induced alterations in DNA melting behavior are given by: […]Tm=Tm(DNA+PBD)-Tm(DNA alone), where the Tm value for the PBD-free CT-DNA is 68.5 […]0.01.
The DNA-binding for these C8-linked carbazole-PBD hybrids has been examined by thermal denaturation studies using calf thymus (CT) DNA. […] Data for 6a, 6b, 6c, 14a, 14b, and 14d and DC-81 are included in Table 5 for comparison.

MCF7 = experiment: ACTREC in vitro cytotoxicity, MCF7; format: cell-based
Procedure: as §1

Colo-205 = experiment: ACTREC in vitro cytotoxicity, Colo-205; format: cell-based
Procedure: as §1

GURAV = experiment: ACTREC in vitro cytotoxicity, GURAV; format: cell-based
Procedure: as §1

A-549 = experiment: ACTREC in vitro cytotoxicity, A-549; format: cell-based; settings: Lung A-549 (Table 4)
Procedure: as §1

PC-3 = experiment: ACTREC in vitro cytotoxicity, PC-3; format: cell-based
Procedure: as §1

Structure (SMILES)	GI50 (A-2780) [nM]	GI50 (Zr-75-1; Breast Zr-75-1 (Table 4)) [nM]	GI50 (KB; Oral KB (Table 4)) [nM]	GI50 (HOP-62; Lung HOP-62 (Table 4)) [nM]	GI50 (HOP-62; non small cell lung (HOPO62)) [nM]	GI50 (Si-Ha; Cervix Si-Ha (Table 4)) [nM]	ΔTm after incubation at 37 °C for 0 h [1] [°C]	ΔTm after incubation at 37 °C for 18 h [1] [°C]	GI50 (MCF7; Breast MCF7 (Table 4)) [nM]	GI50 (MCF7; breast (MCF-7)) [nM]	GI50 (Colo-205; Colon Colo-205 (Table 4)) [nM]	GI50 (Colo-205; colon (Colo205)) [nM]	GI50 (GURAV; Oral GURAV (Table 4)) [nM]	GI50 (Zr-75-1; breast (Zr-75-1)) [nM]	GI50 (A-549) [nM]	GI50 (PC-3; Prostate PC-3 (Table 4)) [nM]	GI50 (PC-3; prostate (PC-3)) [nM]	GI50 (Si-Ha; Cervix (Si-Ha)) [nM]	GI50 (KB; oral (KB), text b39) [nM]	GI50 (GURAV; oral (GURAV), text b39) [nM]
COc1cc2c(cc1OCCCn1c3ccccc3c3ccccc31)N=C[C@@H]1CCCN1C2=O [Compound 6a, 7-Methoxy-8-[3-(9H-9-carbazoly)propoxy]-(11aS)-1,2,3,11a-tetrahydro-5H-pyrrolo[2,1-c][1,4]-benzodiazepin-5-one]	1510	1890	1870	1930	1930	1700	4.2	5.1	1850	1850	1680	1680	1600							
COc1cc2c(cc1OCCCCn1c3ccccc3c3ccccc31)N=C[C@@H]1CCCN1C2=O [Compound 6b, 7-Methoxy-8-[4-(9H-9-carbazoly)butoxy]-(11aS)-1,2,3,11a-tetrahydro-5H-pyrrolo[2,1-c][1,4]benzodiazepin-5-one]	1570	1810	1870	1930	1930	1700	4.3	4.8	2210		1700	1700	1600	1810						
COc1cc2c(cc1OCCCCCCn1c3ccccc3c3ccccc31)N=C[C@@H]1CCCN1C2=O [Compound 6d, 7-Methoxy-8-[6-(9H-9-carbazoly)hexyloxy]-(11aS)-1,2,3,11a-tetrahydro-5H-pyrrolo[2,1-c][1,4]-benzodiazepin-5-one]	1700	2140	1950	1580	1580	1580			1650	1650	1620	1620	1710							
COc1ccc(-c2ccc3c(c2)c2cc(-c4ccc(OC)cc4)ccc2n3CCCOc2cc3c(cc2OC)C(=O)N2CCC[C@H]2C=N3)cc1 [Compound 10d, 7-Methoxy-8-{3-[3,6-di(4-methoxyphenyl)-9H-9-carbazoly]propoxy}-(11aS)-1,2,3,11a-tetrahydro-5H-pyrrolo[2,1-c][1,4]-benzodiazepin-5-one]	150		180	110	110	170			130	130	1700	1700			2100	160				
COc1ccc(-c2ccc3c(c2)c2cc(-c4ccc(OC)cc4)ccc2n3CCCCOc2cc3c(cc2OC)C(=O)N2CCC[C@H]2C=N3)cc1 [Compound 10e, 7-Methoxy-8-{4-[3,6-di(4-methoxyphenyl)-9H-9-carbazoly]butoxy}-(11aS)-1,2,3,11a-tetrahydro-5H-pyrrolo[2,1-c][1,4]-benzodiazepin-5-one]	2000					170			150	150	2900					160	160	170		
COc1cc2c(cc1OCCCN1CCN(CCCCn3c4ccccc4c4ccccc43)CC1)N=C[C@@H]1CCCN1C2=O [Compound 14b, 7-Methoxy-8-(3-{4-[4-(9H-9-carbazoly)butyloxy]piperazino}propyloxy)-(11aS)-1,2,3,11a-tetrahydro-5H-pyrrolo[2,1-c][1,4]benzodiazepin-5-one]	110	150	140	140	140	130	7.8	8.5	150	150	140	140	130	150						
COc1cc2c(cc1OCCCCN1CCN(CCCCn3c4ccccc4c4ccccc43)CC1)N=C[C@@H]1CCCN1C2=O [Compound 14d, 7-Methoxy-8-(4-{-4-[4-(9H-9-carbazoly)butyloxy]piperazino}butyloxy)-(11aS)-1,2,3,11a-tetrahydro-5H-pyrrolo[2,1-c][1,4]benzodiazepin-5-one]	160	150	150	1820		170	7.9	8.4	170	150	160	160	170	170					150	170
